Key:
Type in all cases: functional
[1] = Growth inhibition of human NCI60 cells assessed as cell growth; parameters: concentration or dose not given beside the values
[2] = Growth inhibition of human LOXIMVI cells; details: LOX IMVI; for CC50: read-out: LC50 (the source's name)
[3] = tested on: Malme-3M; assay: Growth inhibition of human MALME-3M cells; details: for CC50: read-out: LC50 (the source's name)
[4] = tested on: M14; assay: Growth inhibition of human M14 cells; details: for CC50: read-out: LC50 (the source's name)
[5] = tested on: MDA-MB-435; assay: Growth inhibition of human MDA-MB-435 cells; details: for CC50: read-out: LC50 (the source's name)
[6] = tested on: SK-MEL-2; assay: Growth inhibition of human SK-MEL-2 cells; details: for CC50: read-out: LC50 (the source's name)
[7] = tested on: SK-MEL-28; assay: Growth inhibition of human SK-MEL-28 cells; details: for CC50: read-out: LC50 (the source's name)
[8] = tested on: SK-MEL-5; assay: Growth inhibition of human SK-MEL-5 cells
[9] = Growth inhibition of human UACC257 cells; details: for GI50: UACC-257; for CC50: UACC-257, read-out: LC50 (the source's name)
[10] = Growth inhibition of human UACC62 cells; details: for GI50: UACC-62; for CC50: UACC-62, read-out: LC50 (the source's name)
[11] = tested on: COLO 205; assay: Growth inhibition of human COLO205 cells; details: for CC50: read-out: LC50 (the source's name)
[12] = Growth inhibition of human HCC2998 cells; details: for GI50: HCC 2998; for CC50: HCC 2998, read-out: LC50 (the source's name)
[13] = tested on: HCT-116; assay: Growth inhibition of human HCT116 cells; details: for CC50: read-out: LC50 (the source's name)
[14] = Growth inhibition of human HCT15 cells; details: for GI50: HCT-15
[15] = tested on: HT-29; assay: Growth inhibition of human HT-29 cells
[16] = tested on: KM12; assay: Growth inhibition of human KM12 cells; details: for CC50: read-out: LC50 (the source's name)
[17] = tested on: SW-620; assay: Growth inhibition of human SW620 cells; details: for CC50: read-out: LC50 (the source's name)
[18] = tested on: A549; assay: Growth inhibition of human A549 cells; details: for CC50: read-out: LC50 (the source's name)
[19] = tested on: HOP-62; assay: Growth inhibition of human HOP62 cells; details: for CC50: read-out: LC50 (the source's name)
[20] = Growth inhibition of human HOP92 cells; details: for GI50: HOP-92; for CC50: HOP-92, read-out: LC50 (the source's name)
[21] = tested on: NCI-H226; assay: Growth inhibition of human NCI-H226 cells; details: for CC50: read-out: LC50 (the source's name)
[22] = tested on: NCI-H23; assay: Growth inhibition of human NCI-H23 cells; details: for CC50: read-out: LC50 (the source's name)
[23] = tested on: NCI-H322M; assay: Growth inhibition of human NCI-H322M cells; details: for CC50: read-out: LC50 (the source's name)
[24] = tested on: NCI-H460; assay: Growth inhibition of human NCI-H460 cells; details: for CC50: read-out: LC50 (the source's name)
[25] = tested on: NCI-H522; assay: Growth inhibition of human NCI-H522 cells; details: for CC50: read-out: LC50 (the source's name)
[26] = tested on: SF-268; assay: Growth inhibition of human SF268 cells; details: for CC50: read-out: LC50 (the source's name)
[27] = Growth inhibition of human SF295 cells; details: SF-295
[28] = Growth inhibition of human SF539 cells; details: for GI50: SF-539; for CC50: SF-539, read-out: LC50 (the source's name)
[29] = tested on: SNB-19; assay: Growth inhibition of human SNB19 cells
[30] = tested on: SNB-75; assay: Growth inhibition of human SNB75 cells; details: for CC50: read-out: LC50 (the source's name)
[31] = tested on: U-251; assay: Growth inhibition of human U251 cells
[32] = tested on: Staphylococcus aureus; assay: Antimicrobial activity against Staphylococcus aureus ATCC 25923 after 12 to 18 hrs by 2-fold serial dilution method

COc1cc(OC)cc(-n2n[n+](C)c3c2C(=O)c2ccccc2C3=O)c1.O=S(=O)([O-])C(F)(F)F
Activity [1]: 23.23%
GI50 [2]: 1710 nM
CC50 [2]: 7090 nM
GI50 [3]: 410 nM
CC50 [3]: 3720 nM
GI50 [4]: 500 nM
CC50 [4]: 4370 nM
GI50 [5]: 310 nM
GI50 [6]: 2080 nM
CC50 [6]: 12400 nM
GI50 [7]: 3200 nM
CC50 [7]: 43300 nM
GI50 [8]: 180 nM
LC50 (lethal concentration 50) [8]: 660 nM
GI50 [9]: 1200 nM
CC50 [9]: 5300 nM
GI50 [10]: 1410 nM
CC50 [10]: 5890 nM
GI50 [11]: 400 nM
CC50 [11]: 5350 nM
GI50 [12]: 1500 nM
CC50 [12]: 8990 nM
GI50 [13]: 2660 nM
CC50 [13]: 48600 nM
GI50 [14]: 1610 nM
GI50 [15]: 1100 nM
LC50 [15]: > 100000 nM
GI50 [16]: 3110 nM
CC50 [16]: 42900 nM
GI50 [17]: 3000 nM
CC50 [17]: > 100000 nM
GI50 [18]: 780 nM
CC50 [18]: 8810 nM
GI50 [19]: 1510 nM
CC50 [19]: 6080 nM
GI50 [20]: 7070 nM
CC50 [20]: > 100000 nM
GI50 [21]: 1740 nM
CC50 [21]: 7760 nM
GI50 [22]: 1260 nM
CC50 [22]: > 100000 nM
GI50 [23]: 360 nM
CC50 [23]: 3680 nM
GI50 [24]: 560 nM
CC50 [24]: 8010 nM
GI50 [25]: 2540 nM
CC50 [25]: 29200 nM
GI50 [26]: 3680 nM
CC50 [26]: > 100000 nM
GI50 [27]: 180 nM
LC50 (concentration killing 50% of cells) [27]: 610 nM
GI50 [28]: 1640 nM
CC50 [28]: 5600 nM
GI50 [29]: 1250 nM
LC50 [29]: 5100 nM
GI50 [30]: 1630 nM
CC50 [30]: 5470 nM
GI50 [31]: 1530 nM
LC50 [31]: 5540 nM
MIC [32]: 16 µg/mL

COc1cc(-n2n[n+](C)c3c2C(=O)c2ccccc2C3=O)cc(OC)c1OC.O=S(=O)([O-])C(F)(F)F
Activity [1]: -27.06%
GI50 [2]: 1190 nM
CC50 [2]: > 100000 nM
GI50 [3]: 300 nM
CC50 [3]: 3260 nM
GI50 [4]: 480 nM
CC50 [4]: 4510 nM
GI50 [5]: 190 nM
CC50 [5]: 670 nM
GI50 [6]: 1750 nM
CC50 [6]: 8090 nM
GI50 [7]: 1370 nM
CC50 [7]: 7110 nM
GI50 [8]: 240 nM
LC50 (lethal concentration 50) [8]: 2320 nM
GI50 [9]: 1370 nM
CC50 [9]: 5810 nM
GI50 [10]: 1230 nM
CC50 [10]: 6120 nM
GI50 [11]: 390 nM
CC50 [11]: 5050 nM
GI50 [12]: 1630 nM
CC50 [12]: 8220 nM
GI50 [13]: 460 nM
CC50 [13]: 18000 nM
GI50 [14]: 1350 nM
GI50 [15]: 340 nM
LC50 [15]: > 100000 nM
GI50 [16]: 2110 nM
CC50 [16]: > 100000 nM
GI50 [17]: 1990 nM
CC50 [17]: > 100000 nM
GI50 [18]: 1680 nM
CC50 [18]: > 100000 nM
GI50 [19]: 1310 nM
CC50 [19]: 7220 nM
GI50 [20]: 1920 nM
CC50 [20]: > 100000 nM
GI50 [21]: 1800 nM
CC50 [21]: 18000 nM
GI50 [22]: 1940 nM
GI50 [23]: 400 nM
CC50 [23]: 5270 nM
GI50 [24]: 790 nM
CC50 [24]: > 100000 nM
GI50 [25]: 1710 nM
CC50 [25]: 8380 nM
GI50 [26]: 870 nM
CC50 [26]: > 100000 nM
GI50 [27]: 540 nM
LC50 (concentration killing 50% of cells) [27]: 4670 nM
GI50 [28]: 400 nM
CC50 [28]: 3800 nM
GI50 [29]: 1400 nM
LC50 [29]: 6990 nM
GI50 [30]: 1430 nM
CC50 [30]: 5340 nM
GI50 [31]: 1540 nM
LC50 [31]: 5520 nM
MIC [32]: 32 µg/mL

COc1ccc(-n2n[n+](C)c3c2C(=O)c2ccccc2C3=O)cc1OC.O=S(=O)([O-])C(F)(F)F
Activity [1]: -31.51%
GI50 [2]: 1140 nM
GI50 [3]: 210 nM
CC50 [3]: 1880 nM
GI50 [4]: 330 nM
CC50 [4]: 3470 nM
GI50 [5]: 190 nM
CC50 [5]: 640 nM
GI50 [6]: 1400 nM
CC50 [6]: 7370 nM
GI50 [7]: 1340 nM
CC50 [7]: 6470 nM
GI50 [8]: 160 nM
LC50 (lethal concentration 50) [8]: 570 nM
GI50 [9]: 1490 nM
CC50 [9]: 5340 nM
GI50 [10]: 1220 nM
CC50 [10]: 5090 nM
GI50 [11]: 310 nM
CC50 [11]: 5710 nM
GI50 [12]: 1650 nM
CC50 [12]: 5790 nM
GI50 [13]: 1160 nM
CC50 [13]: 9530 nM
GI50 [14]: 1110 nM
CC50 ([14]; HCT-15, read-out: LC50 (the source's name)): 6060 nM
GI50 [15]: 550 nM
LC50 [15]: 22200 nM
GI50 [16]: 1380 nM
CC50 [16]: 7230 nM
GI50 [17]: 1660 nM
CC50 [17]: 8870 nM
GI50 [18]: 400 nM
CC50 [18]: 8970 nM
GI50 [19]: 1230 nM
CC50 [19]: 5640 nM
GI50 [20]: 2270 nM
CC50 [20]: 58800 nM
GI50 [21]: 1300 nM
CC50 [21]: 6850 nM
GI50 [22]: 1060 nM
CC50 [22]: > 100000 nM
GI50 [23]: 300 nM
CC50 [23]: 3340 nM
GI50 [24]: 360 nM
CC50 [24]: 8210 nM
GI50 [25]: 2000 nM
CC50 [25]: 6860 nM
GI50 [26]: 1230 nM
CC50 [26]: > 100000 nM
GI50 [27]: 200 nM
LC50 (concentration killing 50% of cells) [27]: 950 nM
GI50 [28]: 500 nM
CC50 [28]: 4080 nM
GI50 [29]: 1140 nM
LC50 [29]: 4870 nM
GI50 [30]: 820 nM
CC50 [30]: 4560 nM
GI50 [31]: 1340 nM
LC50 [31]: 5110 nM
MIC [32]: 4 µg/mL

From ChEMBL document CHEMBL3232814, “Synthesis and anticancer structure activity relationship investigation of cationic anthraquinone analogs” (2014)
